Literature values in patent US11376295B2, “Method for preparing Rhus verniciflua stokes extract containing increased fisetin content, and metastasis-inhibiting anticancer agent composition containing same” (MEDIENCE CO.,LTD, priority 2018, dated 2022).

Settings: among flavonoids of the Rhus verniciflua Stokes extract; result of research, background

Row | SMILES | anticancer activity
1 | O=c1c(O)c(-c2ccc(O)c(O)c2)oc2cc(O)ccc12 [fisetin] | highest anticancer activity
2 | O=C1c2ccc(O)cc2O[C@H](c2ccc(O)c(O)c2)[C@H]1O [fustin] | low anticancer activity
